Experimental data taken from patent US20240165029A1, “ASSISTED LOADING OF HYDROPHOBIC MOLECULES INTO LIPOSOMES” (UNIVERSITY OF CONNECTICUT, priority 2021, published 2024).
“Also recorded” adds a separate entry of the source.

Legend:
[1] = Spectroscopic (UV/Vis) determination of the concentration of xanthophylls in LUVs; assay type: physicochemical
Method: The concentrations of xanthophylls were measured using a 2 mm optical path quartz cell in an Agilent Cary 60 UV-Vis spectrophotometer. To measure the concentration of xanthophylls in LUVs, a 10 μL aliquot is mixed with 300 μL of DMF. Standards and samples were measured at least 3 times and the data were averaged.

mBCO2 [2] = target: T1, mBCO2 (Mus musculus, UniProt Q99NF1); experiment: Acyl-RAC assay of mBCO2 palmitoylation in HEK293F cells; assay type: cell-based; conditions: for mBCO2 palmitoylation (protein band in HAM-treated sample): HEK293F cells, 5 h
T1 construct: expressed in transfected cells; host or cells: HEK293F (Human 293F FreeStyle) cells
T1 sequence (Q99NF1 1-532): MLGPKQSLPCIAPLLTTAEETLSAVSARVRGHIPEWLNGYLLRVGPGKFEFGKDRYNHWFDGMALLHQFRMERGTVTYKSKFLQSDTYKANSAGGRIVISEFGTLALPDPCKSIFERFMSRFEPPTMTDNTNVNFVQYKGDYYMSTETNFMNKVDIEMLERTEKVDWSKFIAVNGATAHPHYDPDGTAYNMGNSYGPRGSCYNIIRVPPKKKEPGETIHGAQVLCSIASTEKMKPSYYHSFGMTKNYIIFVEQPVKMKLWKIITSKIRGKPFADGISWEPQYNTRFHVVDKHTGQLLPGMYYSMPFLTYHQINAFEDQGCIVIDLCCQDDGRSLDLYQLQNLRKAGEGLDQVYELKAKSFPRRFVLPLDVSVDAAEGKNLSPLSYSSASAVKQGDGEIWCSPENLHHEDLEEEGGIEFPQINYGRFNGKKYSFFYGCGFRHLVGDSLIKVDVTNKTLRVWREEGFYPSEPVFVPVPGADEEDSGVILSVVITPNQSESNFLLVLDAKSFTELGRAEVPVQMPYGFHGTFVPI
Method: previously published protocol. Briefly, a typical transfection experiment used 3×10^7 cells in 28 mL of FreeStyle medium mixed with 2 mL of OptiMem-I reduced serum medium containing 40 μL 293fectin transfection reagent (Invitrogen) and 20 μg of each expression plasmid under study. Cells were grown with shaking at 125 rpm on an orbital shaker platform in a 37° C. incubator with a humidified atmosphere of 8% CO2 for 48 h total. In total, 200 μl of vesicles with xanthophylls were added, incubating for 5 hr under standard growth conditions.
For cell lysis and the Acyl-RAC assay, the same protocol as previously described in detail, with slight modifications, was used. BCO2-overexpressing HEK293F cells were washed with 1X-PBS and resuspended in lysis buffer (50 mM HEPES (pH 7.4) containing 150 mM NaCl, 5 mM EDTA, 1% glycerol, and 1× complete protease inhibitor cocktail (Roche Diagnostics)). Resuspended cells were lysed using N2 cavitation followed by centrifugation at 900×g for 10 min at 4° C. to remove the cell debris and nuclei. The clarified supernatant was then subjected to centrifugation at 20,000×g for 30 min at 4° C. to obtain heavy membrane (mitochondrial) pellet and post-mitochondrial supernatant (light membrane and cytosol) fractions. Typically, a 1000 μg amount of resuspended heavy membrane pellet protein (resuspended in lysis buffer containing 0.1% Triton X-100) was used for palmitoylation detection assay. Briefly, free cysteine sulfhydryl (—SH) groups were blocked with 0.5% (v/v) S-methyl methanethiosulfonate (MMTS) containing blocking buffer for 15 min at 40 ° C. The blocked protein samples were then subjected to acetone protein precipitation. The protein pellet was then resuspended in 550 μl 100 mM HEPES containing 5 mM EDTA and 1% SDS (v/v). The samples were then divided into two 250 μl aliquots (containing 400 μg protein amount) and the remaining 50 μl was used as an input. The samples were treated with 250 mM hydroxylamine (NH2OH, HAM) or control (250 mM NaCl). To capture proteins with free —SH groups, each sample was mixed with 10 mg activated thiol-sepharose 4B beads (Sigma) and incubated for 2 h at room temperature with continuous end-over-end rotation. After incubation, the beads were washed, and bound proteins were eluted by boiling the beads with an aliquot of 50 μL elution sample buffer. The input and eluted fractions from “HAM” and “control” samples were separated by SDS-PAGE and analyzed by Western blotting.
(§1) It was previously established that mBCO2 in eukaryotic HEK293F cells is palmitoylated. […] Knowing that BCO2 cleaves xanthophylls, palmitoylation assays were ran to study the palmitoylation status of mBCO2 in the presence of xanthophylls. First, xanthophylls were attempted to be delivered with the detergent Tween 40 [50]. […] Therefore, a new method to deliver xanthophylls without detergents using unilamellar LUVs as described above was established. The content of xanthophylls in the HEK293F cells after 5 h of treatment was similar to a Tween 40 delivery system in ARPE-19 cells (1-2%) (FIG. 9A-9B). Subsequently, the acyl-RAC method was used as described previously. The membrane fraction of HEK293F cells expressing mBCO2 was subjected to treatment with hydroxylamine (+HAM) and an equal portion of the fraction was treated with 250 mM NaCl (−HAM) which served as control.

mBCO2 [3] = target: T1, mBCO2; conditions: earlier work [34]; cited from earlier work
mBCO2 [4] = target: T1, mBCO2; conditions: HEK293F cells, earlier work [34]; cited from earlier work
mBCO2 [5] = target: T1, mBCO2; experiment: Immunocolocalization of mBCO2 in COS7 cells by confocal microscopy; assay type: cell-based; conditions: for percent of colocalization of mBCO2 with nuclear marker: 5 h, lutein 0.15 μM, violaxanthin 0.6 μM, compared with zeaxanthin 0.45 μM
Method: BCO2-overexpressing COS7 cells (1×10^6 cells/mL) seeded on poly L-lysine coated 18 mm coverslips were analyzed by immunofluorescence microscopy to determine the localization of BCO2 protein in different subcellular organelles as described previously. Briefly, COS7 cells were transfected with 20 μg of BCO2-Lumio V5 tag plasmid using Fugene® 6 transfection reagent (1:6 DNA: Fugene 6 ratio). After 43 h, BCO2-transfected cells were treated with substrate-encapsulated LUVs for 5 h. Fixed cells were immunostained with V5 monoclonal and polyclonal antibodies alone and together with primary antibodies specific for different subcellular organelles (ER (PDIA3), Golgi (MAN2A1), mitochondria (COX IV and HSP60), and peroxisomes (PMP70)), followed by Alexa fluorophore-conjugated secondary antibodies (Invitrogen). Cell nuclei were stained with DAPI (1 μg/μL solution; Sigma). Slides were then visualized with a Zeiss LSM 700 confocal microscope using a 40× oil immersion lens/1.4-NA and Zeiss ZEN software. Pearson's correlation coefficient values were determined for analysis of the co-localization of BCO2 protein and different organelles and represented as mean±standard deviation. For nuclear co-localization of BCO2 protein, the Pearson's correlation coefficient of BCO2 with DAPI-stained nuclei was measured using the results from three independent experiments: single labeling of BCO2 “alone”, double labeling of BCO2 with mitochondrial markers COX IV and HSP60. Results shown were typical of a minimum of three independent experiments with 5-10 fields of view containing on average 1-10 cells/field of view.
Next, BCO2 localization by immunofluorescence microscopy was examined using mBCO2 transfected COST cells with various organellar markers (for mitochondria, peroxisomes, endoplasmic reticulum (ER), and Golgi). It was confirmed that V5 tag antibodies recognize specifically mBCO2-V5 protein in transfected HEK293F cells (FIG. 12A-12F). For nuclear labeling, DAPI nuclear stain was used. […]

HEK293F cells = experiment: Tween 40 delivery: effect on HEK293F cells; assay type: cell-based, human; conditions: higher concentration of Tween 40 (0.1%)
Excerpt: as §1

Compound: CC1=C(/C=C/C(C)=C/C=C/C(C)=C/C=C/C=C(C)/C=C/C=C(C)/C=C/C2=C(C)C[C@@H](O)CC2(C)C)C(C)(C)C[C@H](O)C1 [zeaxanthin]
- final concentration of xanthophyll in LUVs measured by UV/Vis ([1]; DMPC/DMPS LUVs): 0.14 g/L
- final concentration of xanthophyll in LUVs measured by UV/Vis ([1]; DPPC/DPPS LUVs): 0.038 g/L
- mBCO2 palmitoylation (protein band in HAM-treated sample) (mBCO2 [2]; 0.45 μM, DPPC/DPPS-encapsulated): residual mBCO2 palmitoylation is seen in some samples

Compound: CC1=C(/C=C/C(C)=C/C=C/C(C)=C/C=C/C=C(C)/C=C/C=C(C)/C=C/C2=C(C)CCCC2(C)C)C(C)(C)CCC1 [β-carotene]
- mBCO2 colocalization with the nuclear DAPI stain (mBCO2 [3]): mBCO2 colocalization with the nuclear DAPI stain was observed
- mBCO2 palmitoylation in presence of substrate (mBCO2 [4]): loses palmitoylation

Compound: CC1=C[C@H](O)CC(C)(C)[C@H]1/C=C/C(C)=C/C=C/C(C)=C/C=C/C=C(C)/C=C/C=C(C)/C=C/C1=C(C)C[C@@H](O)CC1(C)C [lutein]
- percent of colocalization of mBCO2 with nuclear marker (mBCO2 [5]): higher
- percent colocalization of BCO2 in the nucleus (mBCO2 [5]; lower concentration of lutein (0.06 μM) versus 0.15 μM): decreased in a lutein concentration-dependent manner
- final concentration of xanthophyll in LUVs measured by UV/Vis ([1]; DMPC/DMPS LUVs): 0.0125 g/L
- mBCO2 palmitoylation (protein band in HAM-treated sample) (mBCO2 [2]; 0.06 μM lutein in DMPC/DMPS): no protein band was detected in the HAM-treated sample; also recorded: residual mBCO2 palmitoylation is seen in some samples
- mBCO2 palmitoylation (protein band in HAM-treated sample) (mBCO2 [2]; 0.15 μM lutein in DMPC/DMPS): no protein band was detected in the HAM-treated sample

Compound: CC(/C=C/C=C(C)/C=C/[C@@]12O[C@]1(C)C[C@@H](O)CC2(C)C)=C\C=C\C=C(C)\C=C\C=C(C)\C=C\[C@@]12O[C@]1(C)C[C@@H](O)CC2(C)C [violaxanthin]
- percent of colocalization of mBCO2 with nuclear marker (mBCO2 [5]): higher
- final concentration of xanthophyll in LUVs measured by UV/Vis ([1]; DMPC/DMPS LUVs): 0.07 g/L
- mBCO2 palmitoylation (protein band in HAM-treated sample) (mBCO2 [2]; 0.6 μM, DMPC/DMPS-encapsulated): residual mBCO2 palmitoylation is seen in some samples

Compound: Tween 40 [reference compound]
- effect on HEK293F cells (HEK293F cells): led to HEK293F cell apoptosis
- effect on mBCO2 membrane association in Acyl-RAC assay (mBCO2 [2]; lower concentration of Tween 40 (0.01%)): eluted mBCO2 from membranes during the Acyl-RAC assay even without hydroxylamine treatment
